Data on five compounds can be found in patent publication US11497713B2, “Combination taxoid nanoemulsion with immunotherapy in cancer” (TargaGenix, Inc., priority 2017, dated 2022).

One data set concerns PDAC. To be noted: cited from earlier work.
For data set [1], the system named is human CFPAC-1 pancreatic tumor xenograft. Kind of data set: Human CFPAC-1 pancreatic tumor xenograft efficacy (FIG. 2). The format is in vivo, mice. The note with it: for efficacy as compared to vehicles: CFPAC-1 xenograft.
Data set [2] relates to highly drug resistant tumor xenografts. The data set is described as follows: Highly drug resistant tumor xenografts in mice. To be noted: mouse, in vivo.
A further data set deals with Panc02 cells. The data set is described as follows: Cell viability (MTT assay) in Panc02 cells. The format is cell-based, murine. The note with it: Mus musculus, 96 hours of drug exposure. As to the method: The murine pancreatic cancer cell line Panc02, which is syngeneic to C57Bl/6 mice was a kind gift from Professor Michael A. Hollingsworth, UNMC, Omaha, Nebr. Panc02 cells were grown in 75 cm^2 cell culture flasks and maintained in DMEM medium supplemented with 10% fetal bovine serum (FBS), L-glutamine and penicillin (100 U/ml)/streptomycin (100 μg/ml) (both from Gibco Life Technologies, Carlsbad, Calif., USA). Cells were incubated at 37° C. in a humidified atmosphere containing 5% CO2.
To see cytotoxic effect of different drugs and nanoemulsion formulation, 5000 cells were seeded in each well of the 96-well plate for overnight at 37° C. in a humidified atmosphere containing 5% CO2. Various drugs (Paclitaxel, Abraxane, Gemcitabine and solution and nanoemulsion of DHA-SBT-1214) were diluted at concentrations ranging from 0 nM, 0.01 nM, 0.1 nM, 1 nM, 10 nM, 100 nM, 1000 nM to 10000 nM and Panc02 cells treated with these concentrations for 96 hours. After incubation, cells were treated with 3-(4,5-dimethylthiazol-2-yl)-2,5-diphenyltetrazolium bromide ([…]). MU crystals were dissolved with DMSO and plates were read at 570 nm absorbance using a BioTek Synergy HTX Multi-Mode Microplate Reader.
Cells were seeded at 0.5×10^6 cells/well in 6-well plates for overnight at 37 C in a humidified atmosphere containing 5% CO2. […] The percentage maximal response is shown as a function of anti-cancer agents when administered to Panc02 cells. The cell viability was measured by the MTT assay after 96 hours of incubation at 37° C. Data represent mean±standard deviation (n=3). Significant differences are indicated as follows: *p<0.05, and **p<0.01. The expression level of PD-L1 was determined using flow cytometry as follows. […] The cells were washed once with 3% BSA/PBS and analyzed by flow cytometer on a FACSCalibur flow cytometer and CellQuest™ Pro version 6.0 software (both from Becton-Dickinson and Co.). […]

The test system of data set [3] is human PANC-1 pancreatic tumor xenograft. The data set is described as follows: Human PANC-1 pancreatic tumor xenograft, schedule comparison (FIG. 3). The format is in vivo, RPCI SCID mice. From the text: In FIG. 3, this experiment compared a q7d×3 with a q3d×3 schedule for paclitaxel and DHA-SBT-1214 using a human PANC-1 pancreatic tumor xenograft in RPCI SCID mice. […] Paclitaxel was only weakly effective, showing tumor growth delays of 18 days with q7d×3 schedule and 13 days with q3d×3 schedule and no CRs.

In data set [4] the test system is patient-derived PPT2 prostate cancer stem cell xenograft. The data set is described as follows: Patient-derived prostate cancer stem cell (PPT2) xenograft model. It is filed as in vivo, mice. To be noted: patient-derived prostate CSC xenograft.
Data set [5] relates to PD-L1 surface expression in Panc02 cells. Kind of data set: PD-L1 surface protein expression by flow cytometry. The format is cell-based, murine. To be noted: IC50 concentration, 48 hours. Here is the method:
Cells were seeded at 0.5×10^6 cells/well in 6-well plates for overnight at 37 C in a humidified atmosphere containing 5% CO2. […] The percentage maximal response is shown as a function of anti-cancer agents when administered to Panc02 cells. The cell viability was measured by the MTT assay after 96 hours of incubation at 37° C. Data represent mean±standard deviation (n=3). Significant differences are indicated as follows: *p<0.05, and **p<0.01. The expression level of PD-L1 was determined using flow cytometry as follows. Briefly, cells harvested from in vitro cultures were washed twice with 3% BSA/PBS and then incubated with rat anti-PD-L1 or isotype control antibodies ([…], BioXcell, West Lebanon, N.H., USA) for 30 minutes at 4 C, then washed three times and incubated with anti-rat AlexaFluor 488 conjugated Antibody. The cells were washed once with 3% BSA/PBS and analyzed by flow cytometer on a FACSCalibur flow cytometer and CellQuest™ Pro version 6.0 software (both from Becton-Dickinson and Co.).
Panc02 cells were treated with gemcitabine, Abraxane™, paclitaxel and DHA-SBT-1214 both in solution and nanoemulsion for 48 hours to determine whether they can induce PD-L1 protein expression. PD-L1 expression levels on tumor cells were determined by flow cytometry and is expressed as the A mean fluorescence intensity (ΔMFI; MFI using anti-PD-L1 subtracted from the isotype control). […] PD-L1 expression was analyzed using flow cytometry and is presented as ΔMFI (MFI using anti-PD-L1 subtracted from the isotype control). Data represent the mean±standard deviation of at least 3 independent experiments; *p<0.05, **p<0.01, ***p<0.001. As reported previously, PD-L1 level enhanced in pancreatic tumor tissues compared to in vitro growing cells as shown in FIG. 8.

On to `O=c1[nH]cc(F)c(=O)[nH]1` [5-FU, 5-flurouracil], for which the median overall survival with PDAC (randomized Phase III trial, gemcitabine versus 5-FU) is 4.41 months.
In the case of `CC/C=C\C/C=C\C/C=C\C/C=C\C/C=C\C/C=C/CCC(=O)O[C@@H](C(=O)O[C@H]1C[C@@]2(O)[C@@H](OC(=O)c3ccccc3)C3[C@](C)(C(=O)[C@H](OC(C)=O)C(=C1C)C2(C)C)[C@@H](O)C[C@H]1OC[C@@]31OC(C)=O)[C@@H](NC(=O)c1ccccc1)c1ccccc1` (stereo partly shown) [DHA-paclitaxel], the “efficacy as compared to vehicles” value in data set [1] is listed as “only minor tumor growth delay”. For the same compound, in data set [2], the efficacy entry is given as “do not show meaningful activity”.
`CC(=O)O[C@@]12CO[C@@H]1C[C@H](O)[C@@]1(C)C(=O)[C@H](OC(=O)C3CC3)C3=C(C)[C@@H](OC(=O)[C@H](O)[C@H](C=C(C)C)NC(=O)OC(C)(C)C)C[C@@](O)([C@@H](OC(=O)c4ccccc4)[C@H]21)C3(C)C` [SBT-1214] returned a weight loss in data set [1] (120 mg/kg total dose, until day 20) below 4%.
For the compound `CC(=O)O[C@H]1C(=O)[C@@]2(C)[C@H]([C@H](OC(=O)c3ccccc3)[C@]3(O)C[C@H](OC(=O)[C@H](O)[C@@H](NC(=O)c4ccccc4)c4ccccc4)C(C)=C1C3(C)C)[C@]1(OC(C)=O)CO[C@@H]1C[C@@H]2O` [paclitaxel, reference compound], the IC50 in the data set with Panc02 cells came to 0.443 µM. In addition, in data set [1], the “efficacy as compared to vehicles” value is “only minor tumor growth delay”. The “complete responses (CRs)” value in data set [3] (PANC-1 xenograft) was “no CRs”. Also, the results for the tumor growth delay in data set [3] (q3d×3 schedule) and in data set [3] (q7d×3 schedule) were 13 days and 18 days, respectively. For the same compound, the “efficacy (tumor growth, survival)” value in data set [4] is reported as “completely ineffective”. Besides, the “PD-L1 surface expression (ΔMFI)” value in data set [5] was “upregulated”. Besides, in data set [2], the efficacy entry is reported as “do not show meaningful activity”.
As for FOLFIRINOX, the median survival in the data set with PDAC (Phase III clinical trial of FOLFIRINOX) is 11.1 months.
